29 molecules from patent US8779158B2, “Trisubstituted pyrazoles as acetylcholine receptor modulators” (Janssen Pharmaceutica NV, priority 2008, dated 2014) can be followed below.

In experiment [1] the target is T1, hα7-wt nAChR (Homo sapiens, UniProt P36544).
T1 construct: expressed in transfected cells
The experiment in a line: Ca2+ flux imaging (FDSS) (Protocol B), potentiation of the choline response. The format is cell-based. As to conditions: Ca2+ assay as described in D.1; for EC50: "<5" = activity did not reach a top plateau at maximal concentration; for Emax: read-out: % Efficacy. Here is the method:
Ca^2+ Flux Imaging (FDSS) (Protocol B)
• Hanks buffered saline solution (HBSS, Invitrogen, Belgium), supplemented with 10 mM HEPES (Invitrogen, Belgium), CaCl2 to a final concentration of 5 mM, 0.1% Bovine serum albumin (Sigma-Aldrich NV, Belgium). b) Calcium-Sensitive Dye—Fluo-4AM • Fluo-4AM (Molecular Probes, USA) was dissolved in DMSO containing 10% Pluronic acid (Molecular Probes, USA) to give a stock solution which was diluted in assay buffer supplemented with 5 mM probenicid (Sigma, Aldrich NV, Belgium) to give a final concentration of 2 μM. c) 384-Well Plates • Black 384 well plate black/clear plates, PDL pre-coated (Corning, Incorporated, USA) d) Calcium Flux Measurement • A Functional drug screening system (FDSS, Hamamatsu) was used to measure intracellular free-calcium flux signals. Method
Monolayers of hα7-wt nAChR-expressing cells were grown in multi-well plates, in particular black-sided, transparent bottomed 384 well plates coated with poly-D-lysine for 24 hours prior to loading with a fluorescent calcium indicator, in a particular embodiment loading with fluo-4AM for up to 120 minutes.
PAM activity was detected in real time by applying the compounds to be tested to the loaded cells along with a α7 nicotinic receptor agonist during constant monitoring of cellular fluorescence in a FDSS. Compounds giving peak fluorescent responses greater than the response due to agonist alone, were considered to be α7 nAChR PAM's. In a particular embodiment, the α7 nicotinic receptor agonist was choline, a more particular embodiment choline applied at a sub-maximal concentration of 100 μM. In a further setting of the present invention the compounds to be tested were applied prior to the α7 nicotinic receptor agonist, in a particular embodiment up to 10 minutes prior to the agonist.
A control response to choline was calculated on each plate from the difference in peak in fluorescence in wells receiving either choline or assay buffer alone. Compounds of the present invention were tested at a concentration range from 0.01 μM to 30 μM. Compounds were considered to have an interesting activity when they potentiated the choline signal at least with 200% when tested at a concentration of 30 μM (the efficacy of 100 μM choline was defined as 100% in the absence of a PAM). An EC50 (or pEC50) was determined as a concentration relating to half the maximal effect, when a clear sigmoidal curve with top plateau was obtained.

Experiment [2] has as its target T2, hα7-wt nAChR-expressing GH4C1 cells (Homo sapiens, UniProt P36544).
T2 construct: expressed in transfected cells
The experiment in a line: Patch-clamp current recording (whole-cell voltage clamp), potentiation of the choline current and PAM type. It is filed as cell-based. The arrangement: key: Type 0 compounds minimally enhance the effect size of the current elicited by 1 mM choline.; Type 1 compounds enhance the effect size of the current elicited by 1 mM choline but minimally alter the kinetics of the receptor.; Type 2 compounds enhance the effect size of the current elicited by 1 mM choline while reducing the rate and/or the extent of desensitization.; Type 3 compounds enhance the effect size of the current elicited by 1 mM choline. When tested at higher concentrations up to 10 μM they completely inhibit desensitization, in particular a 1 mM choline application of 250 milliseconds.; Type 4 compounds allow for an initial desensitization of the receptor followed by a re-opening of the receptor during agonist application. As to conditions: 1 mM choline. Here is the method: The compounds of the present invention are classified as type 1-4, based on qualitative kinetic properties, as determined by whole-cell voltage-clamp recordings. This classification is based on the effect of an α7 PAM compound, as described hereinbefore, on the signal elicited by an agonist application. In particular, said agonist is choline at a concentration of 1 mM. In a preferred experimental setting, said α7 PAM compound and choline are simultaneously applied to the cell, as described hereinafter. Desensitization is defined as the closure of the receptor upon activation during the application of the agonist in whole-cell voltage-clamp electrophysiology measurements seen as the reduction of the […] current after initial activation by the agonist.
The definition of the PAM types 1-4 is described hereinafter: • Type 0 compounds minimally enhance the effect size of the current elicited by 1 mM choline. • Type 1 compounds enhance the effect size of the current elicited by 1 mM choline but minimally alter the kinetics of the receptor. In particular, the rate and the extent of desensitization, elicited by the agonist, is not affected. The compound-modulated response to 1 mM choline, therefore, is a close to linear scaling of the 1 mM choline response in absence of the α7 PAM compound. • Type 2 compounds enhance the effect size of the current elicited by 1 mM choline while reducing the rate and/or the extent of desensitization. • Type 3 compounds enhance the effect size of the current elicited by 1 mM choline. […] At low-potency concentrations of the α7 PAM compound, the agonist-induced activation, which is followed by desensitization, can still be separated from the compound-induced re-opening as an initial inward current-maximum. At higher potency concentrations of the α7 PAM compound, the re-opening occurs faster than the closure due to desensitization so that the initial current-maximum disappears.
A compound was considered to have interesting PAM-like activity when the potentiation of the peak current was at least 200% compared to the control choline response (=100%). Such compounds are classified as belonging to a particular PAM type in the Experimental Part. Compounds not meeting the condition are not classified as belonging to a particular PAM-type.
The compounds also have a potentiating effect on the response to choline when measured by whole-cell patch clamp electrophysiology in GH4C1 cells stably over-expressing the human wild-type α7 receptor.
Patch-Clamp Current Recording
Patch-clamp recording from mammalian cells has provided a powerful means of assessing the function of membrane-bound proteins thought to be subunits of ligand-gated ion channels. Activation of such proteins by endogenous or exogenous ligands cause opening of a pore associated with the receptor through which ions flow down their electrochemical gradient. In the case of the hα7-wt nAChR-expressing GH4C1 recombinant cell line the preferential permeability to calcium of this receptor means that calcium flows into the cell upon activation by ACh, choline and other nicotinic ligands giving rise to a calcium current. Since this receptor rapidly desensitizes in the presence of agonist it is important an application system is used which is capable of very rapid switching of solutions (<100 ms) to prevent partial or full desensitisation of receptor responses coincident with the time of agonist application. Consequently, a second convenient technique to assess the enhancement of nicotinic efficacy is patch-clamp recording from hα7-wt nAChR-expressing GH4C1 cells coupled with a rapid-application system.
• The external recording solution consisted of 152 mM NaCl, 5 mM KCl, 1 mM MgCl2, 1 mM Calcium, 10 mM HEPES; pH 7.3. […]

T1 sequence (P36544 23-502): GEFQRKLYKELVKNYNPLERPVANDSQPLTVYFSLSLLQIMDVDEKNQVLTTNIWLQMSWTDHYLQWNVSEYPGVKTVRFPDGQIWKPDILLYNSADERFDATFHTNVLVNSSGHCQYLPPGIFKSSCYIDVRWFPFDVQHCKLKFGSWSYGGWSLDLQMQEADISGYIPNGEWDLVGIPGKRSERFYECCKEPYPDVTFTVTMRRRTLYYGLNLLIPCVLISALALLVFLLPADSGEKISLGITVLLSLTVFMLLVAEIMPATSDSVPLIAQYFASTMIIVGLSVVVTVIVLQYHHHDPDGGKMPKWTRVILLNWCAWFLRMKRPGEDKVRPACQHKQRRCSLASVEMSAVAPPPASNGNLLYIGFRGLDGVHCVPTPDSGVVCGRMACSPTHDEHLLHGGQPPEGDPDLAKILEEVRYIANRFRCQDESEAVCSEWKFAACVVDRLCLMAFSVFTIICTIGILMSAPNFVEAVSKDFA
T2 sequence (P36544 23-502): as above

Regarding `COc1cc(Nc2cc(-c3ccnc(C)c3)n(CC(=O)NCC3CC3)n2)cc(C(F)(F)F)c1` [compound 131], the EC50 in experiment [1] is 813 nM. Also, the PAM type in experiment [2] is 2.
In the case of `CNC(=O)Cn1nc(Nc2cccc(C(F)(F)F)c2)cc1-c1ccc2c(c1)OCCO2` [compound 76], the EC50 in experiment [1] is 347 nM. In experiment [2], the PAM type was found to be 4.
For the molecule `CNC(=O)Cn1nc(Nc2ccc(F)c(F)c2F)cc1-c1ccnc(C)c1` [compound 107], in experiment [1], the EC50 is 1860 nM and the Emax came out at 907%. Besides, the PAM type in experiment [2] was 2.
In the case of `Cc1cc(-c2cc(Nc3ccc(F)c(F)c3)nn2CC(=O)NCC2CC2)cc(C)n1` [compound 57], the EC50 in experiment [1] is 209 nM. Further, the PAM type in experiment [2] is 2.
Consider `COc1cc(Nc2cc(-c3ccnc(C)c3)n(CCC(=O)N(C)C)n2)cc(C(F)(F)F)c1` [compound 143], for which, in experiment [1], the EC50 was 575 nM. Also, the PAM type in experiment [2] amounted to 4.
`CNC(=O)Cn1nc(Nc2ccc3c(c2)OC(F)(F)O3)cc1-c1cc(C)nc(C)c1` [compound 130]: in experiment [1], the EC50 is 813 nM and the Emax turned out to be 632%. Also, the PAM type in experiment [2] is 2.
On to `CCNC(=O)Cn1nc(Nc2ccc(F)c(C(F)(F)F)c2)cc1-c1ccc(C)nc1` [compound 27], for which the EC50 in experiment [1] is 1150 nM. Besides, the PAM type in experiment [2] worked out at 2.
For `CN(C)C(=O)CCn1nc(Nc2ccc(F)c(F)c2)cc1-c1cccnc1` [compound 19], in experiment [1], the EC50 is 4270 nM. In addition, the PAM type in experiment [2] came to 2.
`Cc1cc(-c2cc(Nc3ccc(F)c(F)c3F)nn2CCC(=O)N(C)C)ccn1` [compound 166]: in experiment [1], the EC50 is 295 nM and the Emax was 856%. In addition, the PAM type in experiment [2] stood at 2.
Consider `CCNC(=O)Cn1nc(Nc2cc(Cl)cc(OC)c2)cc1-c1ccnc(C)c1` [compound 108], for which, in experiment [1], the EC50 is 1860 nM. Also, in experiment [2], the PAM type was 2.
In the case of `CC[C@H](O)Cn1nc(Nc2cccc(Cl)c2)cc1-c1ccnc(COC)c1` [compound 136], the EC50 in experiment [1] is 646 nM. Also, the PAM type in experiment [2] amounted to 1.
With `CC[C@H](O)Cn1nc(Nc2cccc(Cl)c2F)cc1-c1ccnc(C)c1` [compound 118], in experiment [1], the EC50 was 1170 nM and the Emax was 633%. In addition, in experiment [2], the PAM type is recorded as 0.
For `CC[C@H](O)Cn1nc(Nc2cc(F)cc(F)c2)cc1-c1ccnc(COC)c1` [compound 71], in that order: 1380 nM, 700% and 1.
`COc1cc(Cl)cc(Nc2cc(-c3ccnc(C)c3)n(CCC(=O)N(C)C)n2)c1` [compound 126]: in experiment [1], the EC50 was 912 nM. In addition, the PAM type in experiment [2] is recorded as 2.
For `CNC(=O)Cn1nc(Nc2cc(F)c(F)c(F)c2)cc1-c1ccc2c(c1)OCCO2` [compound 74], in that order: 251 nM and 2.
For `Cc1cnccc1-c1cc(Nc2cc(F)cc(C(F)(F)F)c2)nn1CCC(=O)N(C)C` [compound 9, 3-[[3-fluoro-5-(trifluoromethyl)phenyl]amino]-N,N-dimethyl-5-(3-methyl-4-pyridinyl)-1H-pyrazole-1-propanamide], in that order: 1020 nM and 4.
On to `COc1cc(Cl)cc(Nc2cc(-c3ccnc(C)c3)n(CC(=O)NCC3CC3)n2)c1` [compound 132], for which the EC50 in experiment [1] is 794 nM. The PAM type in experiment [2] was 2.
For the molecule `C[C@H](O)Cn1nc(Nc2cc(F)c(F)c(F)c2)cc1-c1ccc2c(c1)OCCO2` [compound 85], in experiment [1], the EC50 was 1100 nM and the Emax stood at 400%. Moreover, in experiment [2], the PAM type is recorded as 0.
For `Cc1cnccc1-c1cc(Nc2ccc3c(c2)OC(F)(F)O3)nn1CCC(=O)N(C)C` [compound 90], the EC50 in experiment [1] was 912 nM. Besides, the PAM type in experiment [2] is 4.
As to `CCOC(=O)Cn1nc(Nc2ccc(F)c(F)c2)cc1-c1ccc2c(c1)OCCO2` [compound 10, 3-[(3,4-difluorophenyl)amino]-5-(2,3-dihydro-1,4-benzodioxin-6-yl)-1H-pyrazole-1-acetic acid ethyl ester], the EC50 in experiment [1] was 245 nM. For the same molecule, in experiment [2], the PAM type amounted to 2.
The like results for `CC[C@H](O)Cn1nc(Nc2ccc(F)c(F)c2F)cc1-c1ccnc(COC)c1` [compound 121] were, in that order, 1070 nM and 2.
For `CNC(=O)Cn1nc(Nc2ccc3c(c2)OC(F)(F)O3)cc1-c1ccnc(C)c1` [compound 92], in that order: 1860 nM and 2.
For `Cc1cc(-c2cc(Nc3ccc(F)c(F)c3F)nn2CC(=O)NCC2CC2)ccn1` [compound 164], in experiment [1], the EC50 is 309 nM and the Emax was determined as 482%. Further, the PAM type in experiment [2] is recorded as 2.
For `Cc1cc(-c2cc(Nc3cc(F)c(F)c(F)c3)nn2CCC(=O)N(C)C)ccn1` [compound 142], in that order: 617 nM, 816% and 2.
On to `CNC(=O)Cn1nc(Nc2cccc(Cl)c2)cc1-c1cc(C)nc(C)c1` [compound 54], for which, in experiment [1], the EC50 is 977 nM. In experiment [2], the PAM type is recorded as 2.
The like results for `CNC(=O)Cn1nc(Nc2ccc3c(c2)OC(F)(F)O3)cc1-c1ccnc(COC)c1` [compound 112] were, in that order, 1510 nM and 4.
`COCc1cc(-c2cc(Nc3cccc(Cl)c3)nn2CCC(=O)N(C)C)ccn1` [compound 149]: the EC50 in experiment [1] is 437 nM. In addition, in experiment [2], the PAM type is on record as 4.
With `CC[C@H](O)Cn1nc(Nc2cccc(Cl)c2)cc1-c1cc(C)nc(C)c1` [compound 58], the EC50 in experiment [1] was 759 nM. Besides, the PAM type in experiment [2] is listed as 1.
Take `CNC(=O)Cn1nc(Nc2ccc3c(c2)OC(F)(F)O3)cc1-c1ccncc1` [compound 86]: the EC50 in experiment [1] is 2290 nM. In addition, in experiment [2], the PAM type came to 3.
